Like-named read-outs stand apart in the source and are kept apart here. Marks after values point to notes of the source that are not given here.
Legend:
[1] = Tacrolimus pharmacokinetic profiles and trough level monitoring before and after switch of booster from ritonavir to cobicistat in an HIV-infected kidney transplant recipient; type: in vivo, human; details: for AUC(0-t): read-out: AUC264h; for half-life: read-out: T1/2 (elimination half-life) (converted)
Description: Due to the high daily pill burden (i.e., 4 tablets mycophenolate mofetil, 10 tablets for the antiretroviral regimen, 7 pills for the treatment of cardiovascular risk factors, and 8 pills for additional indications), and with new combination antiretroviral pills available, a treatment simplification was envisaged. A feasible antiretroviral treatment considering the multi-drug resistant HIV virus was the combination of dolutegravir (INSTI), rilpivirine (NNRTI), maraviroc and the single tablet combination including emtricitabine, tenofovir alafenamide and darunavir boosted with cobicistat (darunavir/c). […] Due to the inducing properties of ritonavir, we predicted that a switch to cobicistat could result in higher tacrolimus concentrations. During three weeks before and three weeks after the switch we closely monitored tacrolimus drug levels (3 full pharmacokinetic profiles before and after changing the booster) to evaluate the effect on tacrolimus exposure (Figs. 1, 2).
Fig. 1 Tacrolimus profiles during ritonavir-boosted and cobicistat-boosted antiretroviral regimens. Three 11 days pharmacokinetic tacrolimus concentrations profiles in blue while on the ritonavir-boosted regimen before the switch and in red while on the cobicistat-boosted regimen after the switch. *For practical reasons (weekend, holidays) tacrolimus trough levels were measured on day 9 at the end of the third pharmacokinetic profile and on day 10 at the end of the sixth pharmacokinetic profile
Fig. 2 Antiretroviral treatment and tacrolimus trough levels before and after therapy switch. Blue bars indicate drugs before switch and blue dots tacrolimus levels before switch. Red bars indicate drugs after switch and red dots indicate tacrolimus trough levels after switch.

[2] = as above; type: in vivo, human; details: co-administered with darunavir/ritonavir 800/100 mg once daily, 3rd pharmacokinetic profile, dosing interval 10 days for practical reasons
[3] = renal transplant recipients in absence of strong inhibitors; cited from earlier work
[4] = design: method as in PMID 25708713; details: co-administered with ritonavir; cited from earlier work
[5] = human, plasma, oral, co-administered with darunavir/cobicistat 800/150 mg once daily, 1st pharmacokinetic profile
[6] = human, plasma, oral, co-administered with darunavir/cobicistat 800/150 mg once daily, 2nd pharmacokinetic profile
[7] = human, plasma, oral, co-administered with darunavir/cobicistat 800/150 mg once daily, 3rd pharmacokinetic profile

For `C=CC[C@@H]1/C=C(\C)C[C@H](C)C[C@H](OC)[C@H]2O[C@@](O)(C(=O)C(=O)N3CCCC[C@H]3C(=O)O[C@H](/C(C)=C/[C@@H]3CC[C@@H](O)[C@H](OC)C3)[C@H](C)[C@@H](O)CC1=O)[C@H](C)C[C@@H]2OC` [Tacrolimus, tacrolimus], the Tmax ([1]; co-administered with darunavir/cobicistat 800/150 mg once daily, 1st pharmacokinetic profile) was 2 h, the “C0h (pre-dose plasma concentration)” value ([1]; co-administered with darunavir/cobicistat 800/150 mg once daily, 2nd pharmacokinetic profile, tacrolimus once every 11 days) was 4.1 µg/L and the “C0h (pre-dose plasma concentration)” value ([1]; co-administered with darunavir/cobicistat 800/150 mg once daily, 3rd (sixth overall) pharmacokinetic profile, dosing interval 10 days for practical reasons) was 4.0^a µg/L. The “C0h (pre-dose plasma concentration)” value ([1]; co-administered with darunavir/ritonavir 800/100 mg once daily, 1st pharmacokinetic profile, tacrolimus once every 11 days) was 7.3 µg/L, the “C0h (pre-dose plasma concentration)” value ([1]; co-administered with darunavir/ritonavir 800/100 mg once daily, 2nd pharmacokinetic profile, tacrolimus once every 11 days) was 6.1 µg/L and the “C0h (pre-dose plasma concentration)” value ([1]; darunavir/cobicistat 800/150 mg once daily section, 1st profile, trough at the day of the switch, i.e. last trough on darunavir/ritonavir, immediately before darunavir/cobicistat) was 6.8^b µg/L. The tacrolimus trough level ([1]; eleven months post pharmacokinetic booster switch (cobicistat-boosted regimen), dosing interval 11 days) was 2.1 µg/L, the Cmax ([1]; human, plasma, oral, 0.5 mg, co-administered with darunavir/ritonavir 800/100 mg once daily, 1st pharmacokinetic profile) was 15.1 ng/mL and the Cmax ([1]; human, plasma, oral, 0.5 mg, co-administered with darunavir/ritonavir 800/100 mg once daily, 2nd pharmacokinetic profile) was 17.7 ng/mL. The Cmax ([1]; human, plasma, oral, 0.5 mg, co-administered with darunavir/ritonavir 800/100 mg once daily, 3rd pharmacokinetic profile) was 17.6 ng/mL, the Cmax [1, 5] was 11.7 ng/mL and the AUC(0-t) ([1]; human, plasma, oral, co-administered with darunavir/cobicistat 800/150 mg once daily, 1st pharmacokinetic profile, dosing interval 11 days) was 1750 ng·h/mL. It also gave a half-life [1, 5] of 226 h, a Cmax [1, 6] of 13.7 ng/mL and an AUC(0-t) ([1]; human, plasma, oral, co-administered with darunavir/cobicistat 800/150 mg once daily, 2nd pharmacokinetic profile, dosing interval 11 days) of 1870 ng·h/mL. The half-life [1, 6] was 175 h, the Tmax ([1]; human, plasma, oral, co-administered with darunavir/cobicistat 800/150 mg once daily, 2nd pharmacokinetic profile, read-out: Tmax) was 8 h and the Cmax [1, 7] was 12.6 ng/mL. It also gave a half-life [1, 7] of 183 h, a Tmax ([1]; human, plasma, oral, co-administered with darunavir/cobicistat 800/150 mg once daily, 3rd pharmacokinetic profile, read-out: Tmax) of 4 h and an AUC(0-t) ([1]; human, plasma, oral, co-administered with darunavir/ritonavir 800/100 mg once daily, 1st pharmacokinetic profile, dosing interval 11 days) of 2650 ng·h/mL. The half-life ([1]; human, plasma, oral, co-administered with darunavir/ritonavir 800/100 mg once daily, 1st pharmacokinetic profile) was 227 h, the Tmax ([1]; human, plasma, oral, co-administered with darunavir/ritonavir 800/100 mg once daily, 1st pharmacokinetic profile, read-out: Tmax) was 8 h and the AUC(0-t) ([1]; human, plasma, oral, co-administered with darunavir/ritonavir 800/100 mg once daily, 2nd pharmacokinetic profile, dosing interval 11 days) was 2380 ng·h/mL. The half-life ([1]; human, plasma, oral, co-administered with darunavir/ritonavir 800/100 mg once daily, 2nd pharmacokinetic profile) was 275 h, the Tmax ([1]; human, plasma, oral, co-administered with darunavir/ritonavir 800/100 mg once daily, 2nd pharmacokinetic profile, read-out: Tmax) was 4 h and the half-life ([1]; human, plasma, oral, co-administered with darunavir/ritonavir 800/100 mg once daily, 3rd pharmacokinetic profile) was 266 h. The Tmax ([1]; human, plasma, oral, co-administered with darunavir/ritonavir 800/100 mg once daily, 3rd pharmacokinetic profile, read-out: Tmax) was 4 h, the AUC(0-t) ([1]; human, plasma, oral, co-administered with darunavir/cobicistat 800/150 mg once daily, 3rd (sixth overall) pharmacokinetic profile, dosing interval 10 days for practical reasons) was 1240 ng·h/mL and the “C0h (pre-dose plasma concentration)” value [2] was 6.2^a µg/L. The AUC(0-t) ([2]; human, plasma, oral, read-out: AUC264h) was 2350 ng·h/mL, the CL/F [3] was 6.7 L/h and the T1/2 [3] was 15.6 h. For the same compound, the “increase of tacrolimus elimination half-life” value [4] was “sevenfold” and the “increase of tacrolimus exposure” value [4] was 57 fold.

From article PMC10163738, “Switch from a ritonavir to a cobicistat containing antiretroviral regimen and impact on tacrolimus levels in a kidney transplant recipient” (Virology Journal, 2023)
